The values below come from the METLIN SMRT retention time set (Domingo-Almenara et al. 2019).

Structures are written as SMILES.

A short description of the data set: gradient 5% acetonitrile 3 min, to 50% in 2 min, to 85% in 15 min, held 3 min, 100 µL/min. The following applies: column: Zorbax Extend-C18 2.1 x 50 mm; eluents: water / acetonitrile, 0.1% formic acid. Summed up:
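Standards, all pure, were combined into mixtures of ~100 molecules and run at 100 μL/min on a Zorbax Extend-C18 column (2.1 × 50 mm, 1.8 μm) with water and acetonitrile, each containing 0.1% formic acid. A coupled quadrupole time-of-flight mass spectrometer operated in positive and negative ionization mode. Retention time values come from computationally picked adduct peaks, each inspected manually.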
`CCSc1nnc(NC(=O)Cc2csc(NC(=O)c3ccc4c(c3)OCO4)n2)s1`: the RP-LC retention time turned out to be 804 s. The result for `Cn1c(=O)sc2cc(S(=O)(=O)N3CCC(C(=O)Nc4ccc5c(c4)OCCO5)CC3)ccc21` reads 812 s; that for `Cn1nc(C(=O)N2CCCC2)c2c1CCN(C(=O)CCC(=O)NC1CCCCCC1)C2`, 696 s; that for `COc1ccc(-c2coc3cc(OC(=O)c4ccc5c(c4)OCO5)ccc3c2=O)cc1OC`, 981 s. `COc1ccc(-c2cn3c(CC(=O)Nc4ccc(OC)c(Cl)c4)csc3n2)cc1` returned an RP-LC retention time of 805 s. For `COc1ccc(N2CC(c3nc(-c4ccccc4)no3)CC2=O)cc1Cl` (stereo not drawn) the value was 973 s. The result for `CCOc1ccc(Cl)cc1S(=O)(=O)N1CCC(C(=O)NCCCOC)CC1` reads 761 s; that for `COc1ccc(-c2noc(CN3C(=O)COc4ccc(Cl)cc43)n2)cc1OC`, 971 s. The result for `COCCCNC(=O)N1CCCN(C2=NS(=O)(=O)C(c3ccc(C)cc3)=C2C)CC1` reads 730 s; that for `O=C(c1ccsc1)N1CCN(c2[nH]ncc2-c2ccccc2)CC1`, 774 s; that for `COc1cc(N2CCN(S(=O)(=O)c3cccc(C(F)(F)F)c3)CC2)nc(OC)n1`, 947 s. `CCOc1ccccc1CNC(=O)C1CCN(S(=O)(=O)c2cn(CC)cn2)CC1`: the RP-LC retention time turned out to be 739 s.

For `COC(=O)c1ccc(NC(=O)Cn2cccc(-c3nc(-c4ccccc4)no3)c2=O)cc1`, the RP-LC retention time worked out at 829 s. For `CCN1CCN(c2ncc(N3CCC(C(=O)NCc4cccs4)CC3)cn2)CC1`, the RP-LC retention time stood at 603 s. In the case of `Cc1ccn(-c2ccc(C(=O)NC(C)C)cn2)n1`, the RP-LC retention time came to 715 s. Regarding `CCc1nc(-c2cccc(-c3noc(COc4ccc(F)cc4)n3)c2)cs1`, the RP-LC retention time turned out to be 1290 s. The result for `O=C(Cc1csc(NC(=O)c2ccco2)n1)Nc1nc2ccc([N+](=O)[O-])cc2s1` reads 797 s; that for `CCNC(=O)CCc1nc2ccccc2n(CC(=O)Nc2ccccc2OCC)c1=O`, 775 s; that for `CS(=O)(=O)N1CCCC(C(=O)Nc2nc(-c3nc4ccccc4s3)cs2)C1` (stereo not drawn), 800 s. The result for `CCn1cc(S(=O)(=O)Nc2cccc(F)c2)c2cccnc21` reads 817 s; that for `CCCCN1C(=O)C(C)(C(=O)Nc2ccc(OCC)cc2)Oc2cccnc21` (stereo not drawn), 1060 s; that for `O=c1n(Cc2ccccc2)nc2n1CCN(S(=O)(=O)c1ccccc1)CC2`, 793 s. For `Cc1oc(C2CCN(C(=O)c3ccsc3)CC2)nc1C(=O)N1CCCCC1` the value was 745 s; for `COc1ccc2c(=O)c3c(=O)n(Cc4ccccc4)c(-c4cccs4)nc3oc2c1`, 743 s. In the case of `Cc1cc(C)cc(NC(=O)Cn2cnc3nc(N4CCC(C(=O)NC5CC5)CC4)sc3c2=O)c1`, the RP-LC retention time was found to be 713 s.

Turning to `COc1cccc(C2Cn3nnc(-c4nc(-c5ccc(C(C)(C)C)cc5)no4)c3CO2)c1` (stereo not drawn), the RP-LC retention time was determined as 1450 s.

Take `CCc1sc(NC(=O)c2cc3c([nH]c2=O)CCCC3=O)nc1-c1ccc(C)c(C)c1`: the RP-LC retention time stood at 1030 s. The result for `Cn1cccc1-c1noc(C2CCN(C(=O)C3(c4ccccc4)CC3)C2)n1` (stereo not drawn) reads 931 s. The result for `O=S(=O)(NCCc1c[nH]c2ncccc12)c1ccc(Br)cc1` reads 684 s; that for `CC(C)OC(=O)c1c(-c2ccccc2)c(-c2ccccc2)n[nH]c1=O`, 910 s; that for `O=c1ccn(-c2ccc(Cl)cc2)nc1-c1nc(-c2ccc(F)cc2)no1`, 929 s. The result for `CCC(=O)N1CCc2cc(N3CC(C(=O)Nc4ccc(OC)c(F)c4)CC3=O)ccc21` (stereo not drawn) reads 738 s. Consider `CN1c2ccc(F)cc2C(=O)NC12CCN(C(=O)c1ccc(F)c(F)c1)CC2`, for which the RP-LC retention time was found to be 776 s. For `O=S(=O)(Nc1cccc(-c2nc(-c3cccc(Br)c3)co2)c1)c1cccs1` the value was 1230 s. The result for `CN(C1CCc2nn(CC3CC3)c(=O)n2CC1)S(=O)(=O)c1cccc(F)c1` (stereo not drawn) reads 777 s; that for `COc1ccc(S(=O)(=O)CCc2nc(-c3cccc(-c4ccnn4C)c3)no2)cc1`, 866 s; that for `CC1(C)CC(=O)C2=C(C1)N(Cc1ccco1)C(=O)C2(NC(=O)CCc1ccccc1)C(F)(F)F` (stereo not drawn), 996 s. For `CCN1c2ccccc2C(=O)NC12CCN(C(=O)NCc1ccc(C)cc1)CC2` the value was 796 s; for `CN(C)CCNc1nc(-c2ccc(C(C)(C)C)cc2)nc2ccccc12`, 590 s; for `Cc1ccc(CNC(=O)c2cc3n(n2)CC(C)(C(=O)NCCC(C)C)N(C)C3=O)cc1` (stereo not drawn), 802 s.

As for `CC1CCN(c2cc(-n3cnc(C(=O)Nc4ccc5c(c4)OCO5)c3)ncn2)CC1`, the RP-LC retention time is 1060 s. For the compound `CN1C(=O)c2cccnc2Sc2cc(NC(=O)C3CCCO3)ccc21` (stereo not drawn), the RP-LC retention time is 619 s. For `Cc1ccc(C)c(NC(=O)N2CCC(OC3CCN(S(C)(=O)=O)CC3)CC2)c1` the value was 771 s; for `Cc1cc2[nH]c(C(=O)Nc3cccc(Cl)c3F)c(CN3CCOCC3)c2s1`, 768 s. In turn, `COc1ccc(NC(=O)Cc2nnc(-c3ccc4ncccc4c3)o2)cc1` showed an RP-LC retention time of 685 s.

Regarding `O=C(Nc1ccc2c(c1)OCCO2)[C@@H]1COCC(=O)N1Cc1ccc(F)cc1`, the RP-LC retention time was found to be 765 s. `Cc1nc(-c2ccc(-c3noc(C(C)NC(=O)c4ccccc4)n3)cc2)cs1` (stereo not drawn) displayed an RP-LC retention time of 963 s.

Turning to `CCc1nc(-c2cc(S(=O)(=O)NCC(=O)N3CCOCC3)c(C)s2)no1`, the RP-LC retention time is 753 s.

For the compound `COC(=O)C1=CN(c2ccc(Br)cc2)c2cc(F)ccc2S1(=O)=O`, the RP-LC retention time was determined as 939 s. Turning to `Cc1cc(-c2nnc(C3CC3)o2)c(C)n1CC(=O)Nc1ccc(N2CCOCC2)cc1`, the RP-LC retention time is 700 s.

`CC(C)n1c(C2CCN(C(=O)C3CCCO3)CC2)nn(C)c1=O` (stereo not drawn): the RP-LC retention time worked out at 592 s. For `COc1cc(NC(=O)CN2C(=O)CCc3cc(Br)ccc32)cc(OC)c1` the value was 898 s; for `Cc1cc(OCC(=O)N[C@@H](C)C(=O)O)c2c3c(c(=O)oc2c1)CCCC3`, 746 s; for `CN(C)c1ccc(C(=O)Nc2cc(-c3cccnc3)no2)cc1`, 738 s. For `Cc1cc(C)cc(-c2nnc(Cc3nc(-c4cccc(F)c4)no3)o2)c1` the value was 1150 s. The result for `CCc1nc2cc(N3CCC(C(=O)NCc4cccnc4)CC3)cnc2nc1CC` reads 598 s; that for `Cc1ccccc1NS(=O)(=O)c1ccc2c(c1)C(=O)N(C)c1ncccc1O2`, 892 s. Regarding `CCCS(=O)(=O)N1CC(=O)N(c2cccc(Cl)c2)C(C)(C(=O)NC2CCCCC2)C1` (stereo not drawn), the RP-LC retention time amounted to 955 s. The result for `O=C(NCC1CC1)C1CC(=O)N(c2ccc3c(c2)CCN3C(=O)C2CCC2)C1` (stereo not drawn) reads 719 s; that for `O=C(NC1CCN(c2cc(-c3ccc(Cl)cc3)[nH]n2)CC1)c1ccc2nc[nH]c2c1`, 634 s; that for `CCS(=O)(=O)c1ccc(-c2ccc(NS(C)(=O)=O)cc2)nn1`, 643 s.

The compound `CC(=O)Nc1cc(C(=O)NCc2ccccc2Br)c2ccc(C)nc2c1` had an RP-LC retention time of 623 s. The result for `O=C(Nc1cc(-c2ccccn2)no1)c1ccc(Br)cc1` reads 868 s; that for `O=C(CN1C(=O)C(C(=O)N2CCCCC2)Sc2ccccc21)N1CCN(c2ccccn2)CC1` (stereo not drawn), 634 s.

In turn, `CCc1cc(N2CCN(C(=O)c3ccc4c(c3)OCO4)CC2)nc2nncn12` gave an RP-LC retention time of 575 s. For `O=C(CSc1ccc(N2CCCC(C(=O)NC3CC3)C2)nn1)Nc1ccc(Cl)cc1` (stereo not drawn), the RP-LC retention time is 682 s.

The compound `CCCS(=O)(=O)N1CCC(F)(F)C(COCc2cccnc2)C1` (stereo not drawn) yielded an RP-LC retention time of 656 s. For `Cc1cc(C)cc(-n2c(CN3CCN(C(=O)Nc4ccc5c(c4)OCCO5)CC3)nc3cccnc32)c1` the value was 693 s. For `CC(C)OCCCNC(=O)C(=O)Nc1ccc(C(C)C)cc1` the value was 983 s. For `CCN(CC)c1ccc(NC(=O)C2CCCN(S(=O)(=O)c3cn(CC)cn3)C2)c(C)c1` (stereo not drawn) the value was 578 s; for `CCn1c(C)nnc1SCc1nc(-c2ccc(OC)c(OC)c2)oc1C`, 651 s. Consider `O=C(NCc1cccs1)C1CCN(S(=O)(=O)c2cc(-c3noc(C4CCC4)n3)cs2)CC1`, for which the RP-LC retention time worked out at 1000 s. The result for `CCCc1nc(NCc2ccc3c(c2)OCO3)ncc1C(=O)O` reads 791 s; that for `CCCN(C)S(=O)(=O)c1c(C)nn(-c2ccc(-c3ccccc3)nn2)c1C`, 1080 s. For `CCC(=O)NCc1nc2c(n1C)CN(S(=O)(=O)c1ccc(F)cc1F)CC2` the value was 600 s. For `COc1ccc(OCC(O)CN(CCO)CC(O)Cn2ccc3ccccc32)cc1` (stereo not drawn) the value was 591 s.

Regarding `CCn1cc(-c2nc(CC(=O)NCc3ccccc3F)cs2)c2cccnc21`, the RP-LC retention time came to 843 s. Take `CCCn1cc(C(=O)Nc2ccc(S(N)(=O)=O)cc2)c(=O)c2ccc(C)nc21`: the RP-LC retention time turned out to be 867 s.
